Data: patent publication US12509431B2, “1,4-dihydroquinazolinone compounds and uses thereof” (Edgewise Therapeutics, Inc., priority 2022, dated 2025)

Legend:
Format in all cases: biochemical
Conditions in all cases: Table 7
[1] = biological target: T1, Porcine Ventricle myofibrils (left ventricle of Yucatan minipigs) (Sus scrofa, UniProt P79293); experiment: Myofibril ATPase assay (PK/LDH NADH-coupled), ventricle myofibrils
T1 construct: Myofibrils from porcine cardiac muscle was isolated from the left ventricle of Yucatan minipigs; tissue Exemplar Genetics; host or cells: left ventricle of Yucatan minipigs
How it was run: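 Yucatan minipig left-ventricle myofibrils; ATPase measured by PK/LDH-coupled NADH loss at 340 nm, read every 1.5-2 min for 75 min. Slopes normalized to vehicle (100%) and fit to 4-parameter logistic model; EC25 and, for inhibitors, EC50 calculated.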

Porcine Atria myofibrils = experiment: Myofibril ATPase assay (PK/LDH NADH-coupled), atria myofibrils
How it was run: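 Porcine atrial myofibril ATPase followed via PK/LDH-coupled NADH depletion, absorbance at 340 nm read every 1.5-2 min over 75 min. Slopes (mAU/min) normalized to vehicle as 100% and fit to a 4-parameter logistic; EC25% derived, plus EC50% for inhibitors.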

[2] = test system: Rabbit Skeletal myofibrils (rabbit psoas muscle); experiment: Myofibril ATPase assay (PK/LDH NADH-coupled), skeletal myofibrils
How it was run: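 Rabbit psoas myofibrils in pCa (PIPES/CaCl2/EGTA, pH 7.0) buffer; ADP coupled via PK/LDH to NADH loss, read at 340 nm every 1.5–2 min for 75 min. Slopes normalized to vehicle (100%) and fit to 4-parameter logistic for EC25, plus EC50 for inhibitors.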

T1 sequence (P79293 whole entry): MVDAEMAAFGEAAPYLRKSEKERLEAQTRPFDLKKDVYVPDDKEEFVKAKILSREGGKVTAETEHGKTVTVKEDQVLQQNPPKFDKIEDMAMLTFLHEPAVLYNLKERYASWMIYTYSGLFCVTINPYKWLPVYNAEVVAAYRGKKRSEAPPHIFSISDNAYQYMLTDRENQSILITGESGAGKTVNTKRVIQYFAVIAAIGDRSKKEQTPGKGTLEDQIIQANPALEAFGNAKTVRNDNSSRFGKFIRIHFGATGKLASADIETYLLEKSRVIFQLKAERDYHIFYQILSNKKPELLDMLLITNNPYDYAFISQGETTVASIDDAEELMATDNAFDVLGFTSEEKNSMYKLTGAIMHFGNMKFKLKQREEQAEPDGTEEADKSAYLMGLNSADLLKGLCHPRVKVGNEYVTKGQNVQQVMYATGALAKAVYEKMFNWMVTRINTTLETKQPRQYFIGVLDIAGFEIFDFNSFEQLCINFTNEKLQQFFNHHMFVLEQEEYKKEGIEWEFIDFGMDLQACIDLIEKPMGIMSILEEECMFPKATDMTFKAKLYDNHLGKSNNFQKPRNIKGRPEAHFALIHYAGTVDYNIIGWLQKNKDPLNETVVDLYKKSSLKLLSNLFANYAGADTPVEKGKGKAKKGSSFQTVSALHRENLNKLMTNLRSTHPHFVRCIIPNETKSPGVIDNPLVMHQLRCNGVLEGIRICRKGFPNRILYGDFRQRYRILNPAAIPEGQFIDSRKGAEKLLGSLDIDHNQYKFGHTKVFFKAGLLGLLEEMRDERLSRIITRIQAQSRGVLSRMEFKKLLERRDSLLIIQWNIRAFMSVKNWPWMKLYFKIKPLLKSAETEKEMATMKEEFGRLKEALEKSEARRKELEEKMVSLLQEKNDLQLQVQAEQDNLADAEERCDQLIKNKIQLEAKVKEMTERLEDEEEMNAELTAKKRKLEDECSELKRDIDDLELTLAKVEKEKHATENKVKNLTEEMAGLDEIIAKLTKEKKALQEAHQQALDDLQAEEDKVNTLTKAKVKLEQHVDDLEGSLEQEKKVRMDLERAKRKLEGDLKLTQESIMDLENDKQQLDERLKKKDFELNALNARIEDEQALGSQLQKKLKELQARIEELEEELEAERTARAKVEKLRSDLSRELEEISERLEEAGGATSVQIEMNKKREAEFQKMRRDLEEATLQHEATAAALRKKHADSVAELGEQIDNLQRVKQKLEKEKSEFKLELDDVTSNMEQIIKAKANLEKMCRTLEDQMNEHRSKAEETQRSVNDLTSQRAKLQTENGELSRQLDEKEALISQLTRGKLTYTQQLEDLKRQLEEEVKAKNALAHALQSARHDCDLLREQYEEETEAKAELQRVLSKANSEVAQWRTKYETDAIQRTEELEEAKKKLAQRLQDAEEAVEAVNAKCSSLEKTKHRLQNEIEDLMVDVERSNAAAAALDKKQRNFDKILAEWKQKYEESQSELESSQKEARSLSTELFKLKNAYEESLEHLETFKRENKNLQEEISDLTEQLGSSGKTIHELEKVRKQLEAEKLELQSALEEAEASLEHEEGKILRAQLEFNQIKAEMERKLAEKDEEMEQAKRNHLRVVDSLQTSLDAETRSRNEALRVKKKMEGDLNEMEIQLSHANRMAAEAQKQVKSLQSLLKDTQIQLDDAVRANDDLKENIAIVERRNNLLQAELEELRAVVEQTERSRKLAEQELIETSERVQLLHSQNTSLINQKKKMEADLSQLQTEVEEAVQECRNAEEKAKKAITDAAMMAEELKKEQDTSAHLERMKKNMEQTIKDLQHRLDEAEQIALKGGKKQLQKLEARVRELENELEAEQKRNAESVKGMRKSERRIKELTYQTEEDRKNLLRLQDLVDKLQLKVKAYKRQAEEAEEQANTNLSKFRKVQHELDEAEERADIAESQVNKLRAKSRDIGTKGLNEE

Structure (SMILES)	Porcine Ventricle IC25 [1] [nM]	Porcine Atria IC25 (Porcine Atria myofibrils) [nM]	Rabbit Psoas IC25 [2] [nM]
C[C@H](NC(=O)[C@H](C)N1Cc2nc(F)ccc2NC1=O)c1ccc(F)cc1 [Compound N98]	71640	360	8570
C[C@H](NC(=O)[C@@H](C)N1Cc2nc(F)ccc2NC1=O)c1ccc(F)cc1 [Compound N99]	100000	8280	100000
O=C(CN1Cc2c(ccnc2Cl)NC1=O)N[C@@H](c1ccc(F)cc1F)C(F)(F)F [Compound N100]	100000	100000	9480
O=C(CN1Cc2c(ccnc2Cl)NC1=O)N[C@H](c1ccc(F)cc1F)C(F)(F)F [Compound N101]	1940	270	155.4
C[C@H](NC(=O)CN1Cc2nc(Br)ccc2NC1=O)c1ccc(F)cc1F [Compound N103]	9960	160	1030
C[C@@H](NC(=O)CN1Cc2nc(F)ccc2NC1=O)c1ncc(F)cc1F [Compound N104, N-[(1R)-1-(3,5-Difluoropyridin-2-yl)ethyl]-2-[6-fluoro-2-oxo-1H,4H-pyrido[3,2-d]pyrimidin-3-yl]acetamide]	4155	160	169.9
C[C@H](NC(=O)CN1Cc2nc(F)ccc2NC1=O)c1ncc(F)cc1F [Compound N105]	100000	100000	30960
COc1ccc2c(n1)CN([C@H](C)C(=O)N[C@@H](C)c1ccc(F)cc1F)C(=O)N2 [Compound N106]	100000	2580	3732
COc1ccc2c(n1)CN([C@@H](C)C(=O)N[C@@H](C)c1ccc(F)cc1F)C(=O)N2 [Compound N107]	100000	100000	100000
C[C@H](NC(=O)[C@H](C)N1Cc2c(ccnc2C(F)(F)F)NC1=O)c1ccc(F)cc1F [Compound N108]	49280	1410	72.7
C[C@H](NC(=O)CN1Cc2nc(OC(F)(F)F)ccc2NC1=O)c1ccc(F)cc1F [Compound N109]	100000	5440	455.3
CC(C(=O)N[C@@H](C)c1ccc(F)cc1F)N1Cc2nc(F)ccc2NC1=O (stereo partly drawn) [Compound N110]	19540	190	167.4
C[C@H](NC(=O)[C@@H](C)N1Cc2nc(F)ccc2NC1=O)c1ccc(F)cc1F [Compound N111]	6670	80	102.7
C[C@H](NC(=O)CN1Cc2nc(C(F)(F)F)ccc2NC1=O)c1ccc(F)cc1F [Compound N112, N-[(1S)-1-(2,4-Difluorophenyl)ethyl]-2-[2-oxo-6-(trifluoromethyl)-1H,4H-pyrido[3,2-d]pyrimidin-3-yl]acetamide]	9823	230	296.8
C[C@H](NC(=O)CN1Cc2nc(OC3CC3)ccc2NC1=O)c1ccc(F)cc1F [Compound N113]	73850	22120	328.1
C[C@H](NC(=O)[C@H](C)N1Cc2c(ccnc2Cl)NC1=O)c1ccc(F)cc1F [Compound N114]	8373	2300	289.2
C[C@H](NC(=O)[C@@H](C)N1Cc2c(ccnc2Cl)NC1=O)c1ccc(F)cc1F [Compound N115]	751.6	510	22.8
C[C@H](NC(=O)CN1Cc2c(ccnc2OC2CC2)NC1=O)c1ccc(F)cc1F [Compound N116]	40220	4380	191.4
C[C@H](NC(=O)CN1Cc2nc(Cl)ccc2NC1=O)c1ccc(F)cc1F [Compound N117, 2-{6-Chloro-2-oxo-1H,4H-pyrido[3,2-d]pyrimidin-3-yl}-N-[(1S)-1-(2,4-difluorophenyl)ethyl]acetamide]	379.5	170	14.6
CCOc1ccc2c(n1)CN(CC(=O)N[C@@H](C)c1ccc(F)cc1F)C(=O)N2 [Compound N118]	5896	750	152
COc1ccc2c(n1)CN(CC(=O)N[C@@H](C)c1ccc(F)cc1F)C(=O)N2 [Compound N119]	3289	570	119.6
CC(C)Oc1nccc2c1CN(CC(=O)N[C@@H](C)c1ccc(F)cc1F)C(=O)N2 [Compound N120]	27230	100000	423.9
CCOc1nccc2c1CN(CC(=O)N[C@@H](C)c1ccc(F)cc1F)C(=O)N2 [Compound N121]	5985	510	21.8
C[C@H](NC(=O)CN1Cc2c(ccnc2OCC(F)F)NC1=O)c1ccc(F)cc1F [Compound N122]	11420	360	56.7
C[C@H](NC(=O)CN1Cc2nc(F)ccc2NC1=O)c1ccc(F)cc1F [Compound N123]	859.2	70	35.14

Results, then the compound that gave them:

Porcine Ventricle IC25 [1] [nM]	Porcine Atria IC25 (Porcine Atria myofibrils) [nM]	Rabbit Psoas IC25 [2] [nM]	Structure (SMILES)
245.2	80	50.3	C[C@H](NC(=O)CN1Cc2c(ccnc2F)NC1=O)c1ccc(F)cc1F [Compound N124]
2663	680	42.3	COc1nccc2c1CN(CC(=O)N[C@@H](C)c1ccc(F)cc1F)C(=O)N2 [Compound N125, N-[(1S)-1-(2,4-Difluorophenyl)ethyl]-2-{5-methoxy-2-oxo-1H,4H-pyrido[4,3-d]pyrimidin-3-yl}acetamide]
4027	600	75.62	C[C@H](NC(=O)CN1Cc2c(ccnc2C(F)(F)F)NC1=O)c1ccc(F)cc1F [Compound N126]
73050	3120	293.1	C[C@H](NC(=O)CN1Cc2c(ccnc2C2CC2)NC1=O)c1ccc(F)cc1F [Compound N127, 2-[5-Cyclopropyl-2-oxo-1H,4H-pyrido[4,3-d]pyrimidin-3-yl]-N-[(1S)-1-(2,4-difluorophenyl)ethyl]acetamide]
253.3	80	41.8	C[C@H](NC(=O)CN1Cc2c(ccnc2Cl)NC1=O)c1ccc(F)cc1F [Compound N128, 2-{5-Chloro-2-oxo-1H,4H-pyrido[4,3-d]pyrimidin-3-yl}-N-[(1S)-1-(2,4-difluorophenyl)ethyl]acetamide]
4847	4200	559	Cc1nccc2c1CN(CC(=O)N[C@@H](C)c1ccc(F)cc1F)C(=O)N2 [Compound N129, N-[(1S)-1-(2,4-Difluorophenyl)ethyl]-2-{5-methyl-2-oxo-1H,4H-pyrido[4,3-d]pyrimidin-3-yl}acetamide]
100000	1540	688	O=C(CN1Cc2cnccc2NC1=O)N[C@H]1CCCc2cc(F)cc(F)c21 [Compound N130]
100000	36110	8051	C[C@H](NC(=O)CN1Cc2cnccc2NC1=O)c1ccc(Cl)cc1 [Compound N131]
97090	3750	1636	Cc1cc(F)ccc1[C@H](C)NC(=O)CN1Cc2cnccc2NC1=O [Compound N132]
13900	2800	839.1	C[C@H](NC(=O)CN1Cc2cnccc2NC1=O)c1ccc(F)cc1F [Compound N133]
100000	6420	100000	N#Cc1cnc2c(n1)CC[C@H]2NC(=O)CN1C(=O)Nc2ccc(C#N)nc2C12CC2 [Compound N135]
10900	290	100000	N#Cc1cnc2c(n1)CC[C@@H]2NC(=O)CN1C(=O)Nc2ccc(C#N)nc2C12CC2 [Compound N136]
